For the assay, the system named is rat prostatic vas deferens.

This is an account of results in patent publication US7326682B2 (priority 1998, dated 2008).

Counter-ions that a name gives are not always drawn.

In the case of `COC(=O)[C@@H]1[C@H]2C[C@H]3c4[nH]c5ccccc5c4CCN3C[C@@H]2CC[C@@H]1O` [yohimbine, yohimbine hydrochloride], the “effect on the evoked responses” value is on record as “no effect”.
